# Columns and labels:
# [1] = tested on: MDAMB-435 human breast tumor xenografts; assay: MDAMB-435 orthotopic model, NM-3 with 5-Fluorouracil; assay type: in vivo, female NCRNU nude mice; conditions: 5-FU 10 mpk q14d; 0,14 alone
# Method: In order to evaluate the antitumor activity of NM-3 in combination with 5-Fluorouracil (5-FU) vs. MDAMB-435 human breast tumor xenografts, female NCRNU nude mice were implanted with MDAMB-435 cells into the subaxillary mammary fat pad. When the tumors were between 50 and 80 mm^3, NM-3 was administered via intraperitoneal (i.p.) injection daily at 10 and 100 mg/kg; 5-FU was administered via i.p. injection on days 0 and 14, at 10 mg/kg. Mice were weighed twice weekly, and tumor measurements were taken by calipers twice weekly. Mice were euthenized at the end of the treatment period. Upon termination, the mice were weighed, sacrificed and their tumors were excised.
# Initial studies were conducted with 5-FU to determine the optimal dose of this agent when administered in combination with NM-3.
# colon 26 adenocarcinoma = assay: Combination with cyclophosphamide, survival; assay type: in vivo, BALB/c mice; conditions: Cyclophosphamide 300 mg/kg i.v. day 14 alone
# Method: To determine the effect on tumor growth of NM-3 treatment combined with simultaneous cyclophosphamide treatment, colon 26 adenocarcinoma cells (5×10^4 cells per mouse) were subcutaneously transplanted into BALB/c mice (female, 7 weeks old) in the inguinal area. NM-3 was continuously orally administered from day 1 to day 72 after the transplantation except on day 14 when cyclophosphamide was dosed.
# IMC carcinoma = assay: Combination with cyclophosphamide, tumor weight; assay type: in vivo, CDF1 mice; conditions: Cyclophosphamide 300 mg/kg i.v. day 14 alone
# Method: To determine the effect on IMC carcinoma growth of NM-3 treatment combined with simultaneous cyclophosphamide treatment, IMC carcinoma cells (1×10^6 cells per mouse) were subcutaneously transplanted into CDF1 mice (female, 10 weeks old) in the inguinal area. NM-3 which was dissolved using 5% DMSO+Tween80, was continuously orally administered from day 1 to day 41 after transplantation except on day 14, when cyclophosphamide (300 mg/kg) was injected intravenously.
# cultured tumor cells = conditions: cited from earlier work
# [2] = tested on: transplantable mouse solid tumors; conditions: oral administration; cited from earlier work
# [3] = in vivo; cited from earlier work
# [4] = mice and dogs; cited from earlier work
# [5] = tested on: MDAMB-435 human breast tumor xenografts; assay: MDAMB-435 orthotopic model, NM-3 with paclitaxel, second study (100 mm^3) and delivery routes; assay type: in vivo, female NCRNU nude mice; conditions: Taxol 12.5 mg/kg q7d alone
# Method: In order to determine the effect of the combination of NM-3 with the cytotoxic drug, paclitaxel on human breast tumor xenografts, female NCRNU nude mice were implanted with MDAMB-435 cells into the subaxillary mammary fat pad. NM-3 was administered via intraperitoneal (i.p.) injection daily at doses ranging from 10-100 mg/kg; paclitaxel was administered via i.p. injection every 7 days, starting on day 0, at 10 mg/kg.
# In a second study, treatment was initiated when tumor volumes reached 100 mm^3. Paclitaxel was administered at the fixed dose of 12.5 mg/kg, q7d and NM-3 was dosed at 10 and 100 mg/kg, i.p. daily for 28 days.
# A comparison was also made between different delivery routes of NM-3 in the combination studies. NM-3 given i.p. daily, bid, and continuously using Alzet mini osmotic pumps in combination with paclitaxel was evaluated for effectiveness in reducing tumor growth.
# [6] = tested on: MDAMB-435 human breast tumor xenografts; assay: MDAMB-435 orthotopic model, NM-3 with paclitaxel, first study; assay type: in vivo, female NCRNU nude mice; conditions: for % Tumor Growth Inhibition: Taxol 10 mg/kg q7d i.p. alone
# From the text: In order to determine the effect of the combination of NM-3 with the cytotoxic drug, paclitaxel on human breast tumor xenografts, female NCRNU nude mice were implanted with MDAMB-435 cells into the subaxillary mammary fat pad. […]
# [7] = tested on: Lewis Lung carcinoma (LLC) tumors; assay: Radiation sensitivity of Lewis Lung carcinoma in vivo; set-up: species or system C57BL/6 female mice; conditions: combined with X-ray treatment
# Method: To determine whether NM-3 treatment increases the radiation sensitivity of tumors in vivo, Lewis Lung carcinoma (LLC) tumors were established in C57BL/6 female mice (Frederick Cancer Research Institute) prior to NM-3 and radiation treatment. LLC cells (1×10^6 cells) were injected in the right hind limb of the mice and tumors were allowed to grow a volume of 250-350 mm^3. Tumor volumes were determined by direct measurements with calipers calculated by the formula: V=length×width×depth/2. Mice were then divided into groups and treated with NM-3 (100 mg/kg total) or PBS for two days before beginning radiation therapy. Animals then received NM-3 (25 mg/kg/day, i.p.) or PBS approximately four hours prior to radiation treatment. Tumors were irradiated using a GE Maxitron X-ray generator operating at 150 kV, 30 mA, using a 1 mm aluminum filter at a dose rate of 188 cGy/minute. Mice were shielded with lead except for the tumor-bearing area in the hind limb. Treatments and tumor measurements continued for a period of 17 days (see FIG. 4). […] Whereas control tumors reached 8 initial tumor volumes (Vo) after 8 days, X-ray treated tumors required 16 days to grow to this size. […] For comparison, data are plotted with two additional anti-angiogenic drugs, antiostatin and endostatin (see FIGS. 3B and 3C).
# [8] = tested on: Human umbilical vein endothelial cells (HUVEC); assay: HUVEC colony formation with a constant amount of gamma radiation; assay type: cell-based
# Method: Human umbilical vein endothelial cells (HUVEC) were exposed to a constant amount of gamma radiation in the presence or absence of various concentrations of NM-3 in the culture medium. The numbers of HUVEC colonies that formed following the different treatments were recorded and normalized to the number of colonies formed under control (no NM-3) conditions and the results are shown in FIG. 1. […] For comparison, HUVEC cells were treated with either angiostatin or endostatin, two additional anti-angiogenic proteins.
molecule,measurement,setting,value
"O=c1[nH]cc(F)c(=O)[nH]1 [5-FU, 5-Fluorouracil, reference compound]",Final Tumor Wt. (mg) +/− SEM,[1],259.6 ± 36.22 mg
"O=P1(N(CCCl)CCCl)NCCCO1 (stereo not shown) [Cyclophosphamide, reference compound]",Mean Survival Days (days ± S.D.),colon 26 adenocarcinoma,47.9 ± 13.9 days
same,T/C (%),colon 26 adenocarcinoma,145.1%
same,T/C (%),colon 26 adenocarcinoma; listed as cyclophosphamide,145%
same,Inhibition (%),IMC carcinoma,70.7%
same,Solid Weight mg ± S.D.,IMC carcinoma; day 42,3620.4 ± 1406.3 mg
"COc1cc(O)c2c(=O)oc(CO)cc2c1 [Cytogenin, 3-hydroxymethyl-6-methoxy-8-hydroxy-1H-2-benzopyran-1-one]",Anti-proliferation inhibitory activity,cultured tumor cells,very low anti-proliferation inhibitory activity
same,Antitumor activity,[2],demonstrated antitumor activities
same,Stability,[3],in vivo instability
same,Toxicity,[4],low toxicity
"CC(=O)O[C@H]1C(=O)[C@@]2(C)[C@H]([C@H](OC(=O)c3ccccc3)[C@]3(O)C[C@H](OC(=O)[C@H](O)[C@@H](NC(=O)c4ccccc4)c4ccccc4)C(C)=C1C3(C)C)[C@]1(OC(C)=O)CO[C@@H]1C[C@@H]2O [Taxol, paclitaxel]",% Tumor Growth Inhibition,[5],26.52%
same,Final Tumor Ratio (V/Vo) +/− SEM,[5],4.71 ± 0.76 V/Vo
same,Mice with Complete Shrinkage,[5]; n 9,0
same,Final Tumor Wt. (mg) +/− SEM,[6]; Taxol 10 mg/kg q7d alone,215.6 ± 19.73 mg
same,Mice with Complete Shrinkage,"[6]; Taxol 10 mg/kg q7d alone, n 9",0
same,% Tumor Growth Inhibition,[6]; listed as Paclitaxel,no tumor growth inhibition
same,% Tumor Growth Inhibition,[6]; listed as paclitaxel,minimal effect
same,Tumor growth inhibition,"[6]; paclitaxel 20 mg/kg, single agent",significant effect on tumor growth inhibition
"angiostatin: 38-kDa fragment of plasminogen that selectively inhibits proliferation of endothelial cells; anti-angiogenic protein (protein, UniProt P00747 79-466, looked up, Angiostatin, anti-angiogenic protein) Angiostatin: NRKSSIIIRMRDVVLFEKKVYLSECKTGNGKNYRGTMSKTKNGITCQKWSSTSPHRPRFSPATHPSEGLEENYCRNPDNDPQGPWCYTTDPEKRYDYCDILECEEECMHCSGENYDGKISKTMSGLECQAWDSQSPHAHGYIPSKFPNKNLKKNYCRNPDRELRPWCFTTDPNKRWELCDIPRCTTPPPSSGPTYQCLKGTGENYRGNVAVTVSGHTCQHWSAQTPHTHNRTPENFPCKNLDENYCRNPDGKRAPWCHTTNSQVRWEYCKIPSCDSSPVSTEQLAPTAPPELTPVVQDCYHGDGQSYRGTSSTTTTGKKCQSWSSMTPHRHQKTPENYPNAGLTMNYCRNPDADKGPWCFTTDPSVRWEYCNLKKCSGTEASVVAPPP",Radiation sensitization of tumors,[7],some radiation sensitization
same,Inhibition of HUVEC growth compared with NM-3,[8],Neither angiostatin nor endostatin inhibited HUVEC growth to the extent of NM-3
"endostatin: anti-angiogenic protein used for comparison (protein, UniProt P39060 1572-1754, looked up, Endostatin, anti-angiogenic protein used for comparison) Endostatin: HSHRDFQPVLHLVALNSPLSGGMRGIRGADFQCFQQARAVGLAGTFRAFLSSRLQDLYSIVRRADRAAVPIVNLKDELLFPSWEALFSGSEGPLKPGARIFSFDGKDVLRHPTWPQKSVWHGSDPNGRRLTESYCETWRTEAPSATGQASSLLGGRLLGQSAASCHHAYIVLCIENSFMTASK",Radiation sensitization of tumors,[7],did not
same,Inhibition of HUVEC growth compared with NM-3,[8],Neither angiostatin nor endostatin inhibited HUVEC growth to the extent of NM-3
